Experimental data published in PMC11783601, “Analogue-Sensitive Inhibition of Histone Demethylases Uncovers Member-Specific Function in Ribosomal Protein Synthesis” (Journal of the American Chemical Society, 2025).

Molecular target: T1, full-length wild type KDM4A (Homo sapiens, UniProt O75164)
T1 construct: Expression of full-length KDM4A-E and their mutants in HEK293T cells; host or cells: HEK293T
Assay: H3K9me3 Western blot of nuclear extracts of transfected HEK293T cells
Format: cell-based
Conditions: 10 μM n-octyl IOX1, Western blot
Experimental: To test the orthogonality of NOL toward wild type KDM4A, HEK293T cells, either nontransfected or transfected with KDM4A, were individually treated with DMSO, 400 μM 6A or 10 μM n-octyl IOX1, a nonspecific inhibitor of 2OG enzymes. […] To further probe for off-target effects of 6 on endogenous 2OG enzymes, HEK293T cells were cultured with DMSO or 400 μM 6A and examined for several postsynthetic modifications catalyzed by these dioxygenases. Key trimethylated lysine marks on extracted histone were analyzed by Western blot using corresponding antibodies (Figure S31). […] Similarly, no change in prolyl hydroxylation was detected when cellular extracts were subjected to the pan hydroxyproline antibody.
KDM4A mammalian expression plasmid in CMV vector was purchased from Addgene (plasmid #24180). KDM4B mammalian expression plasmid in CMV vector was purchased from Addgene (plasmid #24181). KDM4C mammalian expression plasmid in CMV vector was purchased from Addgene (plasmid #24214). KDM4D mammalian expression plasmid in pReciever vector was purchased from Genecopoia (EX-Z0917-M06.) KDME mammalian expression plasmid in pRP-EXP was designed from Vector Builder. […]
20. Quantification of fixed-cell imaging data
TIF images obtained from confocal microscopy experiments were quantified in ImageJ. […]

T1 sequence (O75164 whole entry): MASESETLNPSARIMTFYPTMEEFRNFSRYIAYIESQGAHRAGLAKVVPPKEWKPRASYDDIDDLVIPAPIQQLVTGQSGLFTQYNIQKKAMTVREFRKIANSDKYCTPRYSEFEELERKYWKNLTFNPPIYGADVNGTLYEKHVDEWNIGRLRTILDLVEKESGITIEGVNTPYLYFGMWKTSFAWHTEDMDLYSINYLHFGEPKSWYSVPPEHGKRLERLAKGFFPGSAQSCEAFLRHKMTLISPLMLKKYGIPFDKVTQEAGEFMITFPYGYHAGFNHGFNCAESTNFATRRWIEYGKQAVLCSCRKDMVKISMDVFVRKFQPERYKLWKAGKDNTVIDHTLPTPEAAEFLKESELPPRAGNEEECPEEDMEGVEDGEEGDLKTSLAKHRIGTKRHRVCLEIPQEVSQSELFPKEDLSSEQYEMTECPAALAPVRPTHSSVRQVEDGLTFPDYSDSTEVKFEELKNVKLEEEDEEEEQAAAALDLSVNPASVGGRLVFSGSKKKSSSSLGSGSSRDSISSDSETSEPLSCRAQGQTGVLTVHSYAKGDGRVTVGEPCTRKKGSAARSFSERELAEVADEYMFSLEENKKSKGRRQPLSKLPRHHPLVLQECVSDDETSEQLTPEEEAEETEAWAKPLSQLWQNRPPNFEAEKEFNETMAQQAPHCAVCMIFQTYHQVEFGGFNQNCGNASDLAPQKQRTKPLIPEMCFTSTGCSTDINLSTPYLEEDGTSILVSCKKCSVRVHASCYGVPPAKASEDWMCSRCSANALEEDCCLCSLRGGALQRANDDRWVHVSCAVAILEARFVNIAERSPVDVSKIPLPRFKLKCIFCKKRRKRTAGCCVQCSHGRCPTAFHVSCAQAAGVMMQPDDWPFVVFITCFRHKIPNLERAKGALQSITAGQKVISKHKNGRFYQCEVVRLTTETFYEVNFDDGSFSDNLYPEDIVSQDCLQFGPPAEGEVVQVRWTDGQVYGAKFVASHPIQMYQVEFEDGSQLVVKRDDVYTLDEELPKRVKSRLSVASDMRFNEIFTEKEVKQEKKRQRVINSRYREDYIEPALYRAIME

With `CCCCCCCCOC(=O)c1ccc(O)c2ncccc12` [n-octyl IOX1] the “inhibition of wild type KDM4A H3K9me3 demethylation” value was “Inhibition” and the “inhibition of wild type KDM4A H3K9me3 demethylation” value (listed as IOX1) was “strongly inhibited”.
